Patent US10087191B2, “Piperidine derivative and preparation method and pharmaceutical use thereof” (Jiangsu Hengrui Medicine Co., Ltd., priority 2015, dated 2018)

Tests used:
[1] = tested on: MCF7 cells; assay: Inhibition of the proliferation of MCF7 cells (Cell Titer-Glo); format: cell-based; conditions: Homo sapiens, MCF-7 cells, 72 hours, read-out: IC50 value of inhibition effect on the proliferation of MCF7 cells
Experimental: The object of this experiment was to determine the inhibition effect of the compounds on the proliferation activity of MCF7 cells, and the in vitro activity of the compounds was evaluated according to the IC50 value.
After incubation for 24 hours, the medium was removed, then 90 μl of the medium containing 2% FBS and 10 μl of the drug were added to each well, 10 μl of DMSO were added to the control group, and the blank group contained only 100 μl medium containing 2% FBS. The plate was gently shaken and incubated in a incubator at 37° C., 5% CO2. After 72 hours, 50 μl of mixed Cell Titer-Glo (Promega, Cat. No. G7571) were added to each well. The plate was shaken until the ingredients were well mixed, and placed at room temperature for 10 minutes, then the chemiluminescence signal value was determined.
The values of the chemiluminescence signals vs the logarithmic concentrations of the compounds were plotted using Graghpad Prism to obtain IC50 values.

[2] = Pharmacokinetics assay in BALB/C nude mice after intragastrical administration; format: in vivo; conditions: female, mouse, plasma, po, 3 mg/kg; for AUC: read-out: Area Under Curve AUC; for CL/F: read-out: Clearance CL/F (converted); for half-life: read-out: Half-Life t½ (converted); for MRT: read-out: Mean Residence Time MRT; for Cmax: read-out: Plasma Conc. Cmax
Experimental: BALB/C nude mice were used as test animals. The drug concentration in plasma at different time points was determined by LC/MS/MS after intragastrical administration of the compounds of Examples 10, 14, 20, 21, 57, 68, 71, 73, 74, 76 and 89 to BALB/C nude mice. The pharmacokinetic behavior of the compounds of the present invention was studied and evaluated in BALB/C nude mice.
Ninety-nine (99) female BALB/C nude mice were equally divided into 11 groups, which were purchased from SINO-BRITSH SIPPR/BK LAB. ANIMAL LTD., CO, with Certificate No.: SCXK (Shanghai) 2008-0016.
The appropriate amount of each test compound was weighed, and successively added with 9% PEG400+0.5% tween 80+0.5% PVP+90% aqueous solution of 0.5% CMC.
After an overnight fast, 99 female BALB/C nude mice were equally divided into 11 groups, and administered the test compounds intragastrically at an administration volume of 0.2 mL/10 g.
Blood (0.1 mL) was sampled (3 mice at each time point) at 0.5, 1.0, 2.0, 4.0, 6.0, 8.0, 11.0 and 24.0 hours after administration. The samples were stored in heparinized test tubes, and centrifuged for 10 minutes at 3,500 rpm to separate the blood plasma. The plasma samples were stored at −20° C. The plasma concentration of the test compounds in BALB/C nude mice after intragastrical administration was determined by LC/MS/MS.
Pharmacokinetic parameters of the compounds of Examples 10, 14, 20, 21, 57, 68, 71, 73, 74, 76 and 89 of the present invention are shown below.

SMILES | IC50 [1] | further results
CC1Cc2cc(O)ccc2C(c2c(F)cc(/C=C/C(=O)O)cc2F)N1CC(C)(C)F [Example 3, (E)-3-(3,5-difluoro-4-((1S,3R/1R,3S)-2-(2-fluoro-2-methylpropyl)-6-hydroxy-3-methyl-1,2,3,4-tetrahydroisoquinolin-1-yl)phenyl)acrylic acid] | 2.12 nM | 
Cc1noc(-c2ccc3c(c2)CC(C)N(CC(C)(C)F)C3c2c(F)cc(/C=C/C(=O)O)cc2F)n1 [Example 53, (E)-3-(3,5-difluoro-4-((1S,3R/1R,3S)-2-(2-fluoro-2-methylpropyl)-3-methyl-6-(3-methyl-1,2,4-oxadiazol-5-yl)-1,2,3,4-tetrahydroisoquinolin-1-yl)phenyl)acrylic acid] | 15 nM | 
CC1Cc2c(oc3ccc(Br)cc23)C(c2c(F)cc(/C=C/C(=O)O)cc2F)N1CC(C)(C)F [Example 87, (E)-3-(4-((1R,3R/1S,3S)-6-bromo-2-(2-fluoro-2-methylpropyl)-3-methyl-1,2,3,4-tetrahydrobenzofuro[2,3-c]pyridin-1-yl)-3,5-difluorophenyl)acrylic acid] | 9.27 nM | 
CC1Cc2cc(-c3cccnc3)ccc2C(c2c(F)cc(/C=C/C(=O)O)cc2F)N1CC(C)(C)F [Example 28, (E)-3-(3,5-difluoro-4-((1S,3R/1R,3S)-2-(2-fluoro-2-methylpropyl)-3-methyl-6-(pyridin-3-yl)-1,2,3,4-tetrahydroisoquinolin-1-yl)phenyl)acrylic acid] | 3.71 nM | 
CNC(=O)Nc1ccc2c(c1)CC(C)N(CC(C)(C)F)C2c1c(F)cc(/C=C/C(=O)O)cc1F [Example 29, (E)-3-(3,5-difluoro-4-((1S,3R/1R,3S)-2-(2-fluoro-2-methylpropyl)-3-methyl-6-(3-methylureido)-1,2,3,4-tetrahydroisoquinolin-1-yl)phenyl)acrylic acid] | 4.82 nM | 
CC1Cc2c(oc3c(F)cccc23)C(c2c(F)cc(/C=C/C(=O)O)cc2F)N1CC(C)(C)F [Example 84, (E)-3-(3,5-difluoro-4-((1R,3R/1S,3S)-8-fluoro-2-(2-fluoro-2-methylpropyl)-3-methyl-1,2,3,4-tetrahydrobenzofuro[2,3-c]pyridin-1-yl)phenyl)acrylic acid] | 4.21 nM | 
CCn1cc(-c2ccc3c(c2)C[C@H](C)N(CC(C)(C)F)[C@H]3c2c(F)cc(/C=C/C(=O)O)cc2F)cn1 [Example 22, (E)-3-(4-((1R,3S)-6-(1-ethyl-1H-pyrazol-4-yl)-2-(2-fluoro-2-methylpropyl)-3-methyl-1,2,3,4-tetrahydroisoquinolin-1-yl)-3,5-difluorophenyl)acrylic acid] | 17.4 nM | 
CC(C)CN1C(C)Cc2c(ccc3[nH]ncc23)C1c1c(F)cc(/C=C/C(=O)O)cc1F [Example 92, (E)-3-(3,5-difluoro-4-((6S,8R/6R,8S)-7-isobutyl-8-methyl-6,7,8,9-tetrahydro-3H-pyrazolo[4,3-f]isoquinolin-6-yl)phenyl)acrylic acid] | 0.99 nM | 

Now from value to molecule, other results behind:

IC50 [1] | SMILES | further results
0.22 nM | C[C@@H]1Cc2cc(-c3cn[nH]c3)ccc2[C@@H](c2c(F)cc(/C=C/C(=O)O)cc2F)N1CC(C)(C)F [Example 25, (E)-3-(3,5-difluoro-4-((1S,3R)-2-(2-fluoro-2-methylpropyl)-3-methyl-6-(1H-pyrazol-4-yl)-1,2,3,4-tetrahydroisoquinolin-1-yl)phenyl)acrylic acid] | 
0.01 nM | C[C@H]1Cc2cc(-c3cnn(C)c3)ccc2[C@H](c2c(F)cc(/C=C/C(=O)O)cc2F)N1CC(C)(C)F [Example 56, (E)-3-(3,5-difluoro-4-((1R,3S)-2-(2-fluoro-2-methylpropyl)-3-methyl-6-(1-methyl-1H-pyrazol-4-yl)-1,2,3,4-tetrahydroisoquinolin-1-yl)phenyl)acrylic acid] | 
3.07 nM | CC1Cc2cc(-c3nnn(C)n3)ccc2C(c2c(F)cc(/C=C/C(=O)O)cc2F)N1CC(C)(C)F [Example 51, (E)-3-(3,5-difluoro-4-((1S,3R/1R,3S)-2-(2-fluoro-2-methylpropyl)-3-methyl-6-(2-methyl-2H-tetrazol-5-yl)-1,2,3,4-tetrahydroisoquinolin-1-yl)phenyl)acrylic acid] | 
0.08 nM | Cc1ncc(-c2ccc3c(c2)C[C@@H](C)N(CC(C)(C)F)[C@@H]3c2c(F)cc(/C=C/C(=O)O)cc2F)s1 [Example 11, (E)-3-(3,5-difluoro-4-((1S,3R)-2-(2-fluoro-2-methylpropyl)-3-methyl-6-(2-methylthiazol-5-yl)-1,2,3,4-tetrahydroisoquinolin-1-yl)phenyl)acrylic acid] | 
0.21 nM | CC1Cc2c(oc3ccc(-c4cccnc4)cc23)C(c2c(F)cc(/C=C/C(=O)O)cc2F)N1CC(C)(C)F [Example 90, (E)-3-(3,5-difluoro-4-((1R,3R/1S,3S)-2-(2-fluoro-2-methylpropyl)-3-methyl-6-(pyridin-3-yl)-1,2,3,4-tetrahydrobenzofuro[2,3-c]pyridin-1-yl)phenyl)acrylic acid] | 
3.58 nM | CC1Cc2cc(-c3ccc(-c4cnn(C)c4)nc3)ccc2C(c2c(F)cc(/C=C/C(=O)O)cc2F)N1CC(C)(C)F [Example 61, (E)-3-(3,5-difluoro-4-((1S,3R/1R,3S)-2-(2-fluoro-2-methylpropyl)-3-methyl-6-(6-(1-methyl-1H-pyrazol-4-yl)pyridin-3-yl)-1,2,3,4-tetrahydroisoquinolin-1-yl)phenyl)acrylic acid] | 
0.03 nM | CCn1cc(-c2ccc3c(c2)CC(C)N(CC(C)(C)F)C3c2c(F)cc(/C=C/C(=O)O)cc2F)cn1 [Example 20, (E)-3-(4-((1S,3R/1R,3S)-6-(1-ethyl-1H-pyrazol-4-yl)-2-(2-fluoro-2-methylpropyl)-3-methyl-1,2,3,4-tetrahydroisoquinolin-1-yl)-3,5-difluorophenyl)acrylic acid] | AUC [2]: 13000 ng·h/mL; CL/F [2]: 63.8 mL/min/kg; half-life [2]: 3.27 h; MRT [2]: 4.07 h; Cmax [2]: 3290 ng/mL
3.66 nM | CCc1nc(-c2ccc3c(c2)CC(C)N(CC(C)(C)F)C3c2c(F)cc(/C=C/C(=O)O)cc2F)no1 [Example 46, (E)-3-(4-((1S,3R/1R,3S)-6-(5-ethyl-1,2,4-oxadiazol-3-yl)-2-(2-fluoro-2-methylpropyl)-3-methyl-1,2,3,4-tetrahydroisoquinolin-1-yl)-3,5-difluorophenyl)acrylic acid] | 
0.11 nM | CCn1cc(-c2ccc3c(c2)C[C@@H](C)N(CC(C)(C)F)[C@@H]3c2c(F)cc(/C=C/C(=O)O)cc2F)cn1 [Example 21, (E)-3-(4-((1S,3R)-6-(1-ethyl-1H-pyrazol-4-yl)-2-(2-fluoro-2-methylpropyl)-3-methyl-1,2,3,4-tetrahydroisoquinolin-1-yl)-3,5-difluorophenyl)acrylic acid] | AUC [2]: 10100 ng·h/mL; CL/F [2]: 82.7 mL/min/kg; half-life [2]: 2.52 h; MRT [2]: 2.71 h; Cmax [2]: 4300 ng/mL
0.49 nM | Cc1ncc(-c2ccc3c(c2)CC(C)N(CC(C)(C)F)C3c2c(F)cc(/C=C/C(=O)O)cc2F)s1 [Example 10, (E)-3-(3,5-difluoro-4-((1S,3R/1R,3S)-2-(2-fluoro-2-methylpropyl)-3-methyl-6-(2-methylthiazol-5-yl)-1,2,3,4-tetrahydroisoquinolin-1-yl)phenyl)acrylic acid] | AUC [2]: 15400 ng·h/mL; CL/F [2]: 54 mL/min/kg; half-life [2]: 4.11 h; MRT [2]: 5.72 h; Cmax [2]: 2600 ng/mL
1.59 nM | CC1Cc2cc(NC(=O)N(C)C)ccc2C(c2c(F)cc(/C=C/C(=O)O)cc2F)N1CC(C)(C)F [Example 44, (E)-3-(4-((1S,3R/1R,3S)-6-(3,3-dimethylureido)-2-(2-fluoro-2-methylpropyl)-3-methyl-1,2,3,4-tetrahydroisoquinolin-1-yl)-3,5-difluorophenyl)acrylic acid] | 
